Literature values in patent US11730745B1, “Kit and new method of treatment for skin basal cell and squamous cell carcinoma” (priority 2022, dated 2023).

Test system: cancer
Conditions: additional treatment with Selenium

Structure (SMILES): [Se] [Selenium]
- Decrease of the frequency of cancer: more than 35%
